# Results as given in patent US20080014186A1, “Hla-A24 or Hla-A2 Binding Peptides of Parathyroid Hormone-Related Protein” (GREEN PEPTIDE CO., LTD., priority 2004, published 2008).
# Key:
# [1] = tested on: PBMCs of HLA-A2^+ healthy donors and prostate cancer patients; test: Assay for peptide-specific CTLs in PBMCs (IFN-γ ELISA, peptide-pulsed T2 cells); format: cell-based, human; details: for INF-γ production: T2 cells
# [2] = tested on: IgG in plasma of HLA-A2^+ healthy donors and prostate cancer patients; test: Peptide-specific IgG in plasma by ELISA (HLA-A2-binding PTHrP peptides); parameters: species or system human; details: for IgG reactive to the peptide in plasma (difference of OD): 1:100-diluted plasma
# Method: Peptide-specific IgG levels in the plasma were measured by ELISA, as previously reported. In brief, peptide (20 μg/well)-immobilized plates were blocked with Block Ace (Yukijirushi, Tokyo, Japan) and washed with 0.05% Tween20-PBS, after which 100 μl/well of plasma sample diluted with 0.05% Tween20-Block Ace was added to the plate. After 2 hours incubation at 37° C., the plates were washed and further incubated for 2 hours with a 1:1000-diluted rabbit anti-human IgG (γ-chain-specific) (DAKO, Glostrup, Denmark). The plates were washed, and then 100 μl of 1:100-diluted goat anti-rabbit IgG-conjugated horseradish peroxidase (EnVision, DAKO) was added to each well, and the plates were then incubated at room temperature for 40 min. After the plates were washed once, 100 μl/well of tetramethyl benzidine substrate solution (KPL, Guildford, UK) was added, and the reaction was stopped by the addition of 1 M phosphoric acid. The values are shown as optical density (OD) units/ml, and responses to the HIV peptide were subtracted. IgG reactive to a corresponding PTHrP peptide was judged to be positive when the difference of the OD in 1:100-diluted plasma exceeded 0.05. The results that IgG reactive to either the PTHrP102-111 or the […] peptide was detected in 8 of 10 healthy donors and in 7 of 10 prostate cancers are shown in Table 2 hereinafter.
# In a similar way to Example 3, it was examined whether IgGs reactive to peptides of PTHrP 42-51 and PTHrP 59-67 could be detected in the plasma of 10 healthy donors and 10 cancer patients. The cut-off value at 1:100-diluted plasma was ODO.054.
sequence,measurement,setting,value
IQDLRRRFFL [PTHrP 51-60],INF-γ production,[1]; HLA-A2^+ healthy donor #1 (A0201),0 pg/mL
same,INF-γ production,[1]; HLA-A2^+ healthy donor #2 (A0201),79 pg/mL
same,INF-γ production,[1]; HLA-A2^+ healthy donor #3 (A0201),0 pg/mL
same,INF-γ production,[1]; HLA-A2^+ healthy donor #4 (A0201),314 pg/mL
same,INF-γ production,[1]; HLA-A2^+ healthy donor #5 (A0206),0 pg/mL
same,INF-γ production,[1]; HLA-A2^+ healthy donor #6 (A0206),46 pg/mL
same,INF-γ production,[1]; HLA-A2^+ healthy donor #7 (A0206),0 pg/mL
same,INF-γ production,[1]; HLA-A2^+ healthy donor #8 (A0206),16 pg/mL
same,INF-γ production,[1]; HLA-A2^+ healthy donor #9 (A0206),0 pg/mL
same,INF-γ production,[1]; HLA-A2^+ healthy donor #10 (A0207),14 pg/mL
same,Total (donors with significant peptide-specific IFN-γ production / donors tested),"[1]; HLA-A2^+ healthy donors, p < 0.05",2/10
same,INF-γ production,[1]; HLA-A2^+ prostate cancer patient #1 (A0206),55 pg/mL
same,INF-γ production,[1]; HLA-A2^+ prostate cancer patient #2 (A0210),187 pg/mL
same,INF-γ production,[1]; HLA-A2^+ prostate cancer patient #3 (A0210),34 pg/mL
same,INF-γ production,[1]; HLA-A2^+ prostate cancer patient #4 (A0206),33 pg/mL
same,INF-γ production,[1]; HLA-A2^+ prostate cancer patient #5 (A0206),0 pg/mL
same,INF-γ production,[1]; HLA-A2^+ prostate cancer patient #6 (A0207),0 pg/mL
same,INF-γ production,[1]; HLA-A2^+ prostate cancer patient #7 (A0206),0 pg/mL
same,INF-γ production,[1]; HLA-A2^+ prostate cancer patient #8 (A0206),2 pg/mL
same,INF-γ production,[1]; HLA-A2^+ prostate cancer patient #9 (A0201),67 pg/mL
same,INF-γ production,[1]; HLA-A2^+ prostate cancer patient #10 (A0201),21 pg/mL
same,Total (patients with significant peptide-specific IFN-γ production / patients tested),"[1]; HLA-A2^+ prostate cancer patients, p < 0.05",2/10
same,IgG reactive to the peptide in plasma (difference of OD),[2]; HLA-A2^+ healthy donor #1,0.0945 OD
same,IgG reactive to the peptide in plasma (difference of OD),[2]; HLA-A2^+ healthy donor #2,0.1338 OD
same,IgG reactive to the peptide in plasma (difference of OD),[2]; HLA-A2^+ healthy donor #3,— (IgG reactive to a corresponding peptide was judged to be positive when a difference of OD in a 1:100-diluted plasma was more than 0.054.)
same,IgG reactive to the peptide in plasma (difference of OD),[2]; HLA-A2^+ healthy donor #4,— (IgG reactive to a corresponding peptide was judged to be positive when a difference of OD in a 1:100-diluted plasma was more than 0.054.)
same,IgG reactive to the peptide in plasma (difference of OD),[2]; HLA-A2^+ healthy donor #5,— (IgG reactive to a corresponding peptide was judged to be positive when a difference of OD in a 1:100-diluted plasma was more than 0.054.)
same,IgG reactive to the peptide in plasma (difference of OD),[2]; HLA-A2^+ healthy donor #6,— (IgG reactive to a corresponding peptide was judged to be positive when a difference of OD in a 1:100-diluted plasma was more than 0.054.)
same,IgG reactive to the peptide in plasma (difference of OD),[2]; HLA-A2^+ healthy donor #7,0.0675 OD
same,IgG reactive to the peptide in plasma (difference of OD),[2]; HLA-A2^+ healthy donor #8,— (IgG reactive to a corresponding peptide was judged to be positive when a difference of OD in a 1:100-diluted plasma was more than 0.054.)
same,IgG reactive to the peptide in plasma (difference of OD),[2]; HLA-A2^+ healthy donor #9,— (IgG reactive to a corresponding peptide was judged to be positive when a difference of OD in a 1:100-diluted plasma was more than 0.054.)
same,IgG reactive to the peptide in plasma (difference of OD),[2]; HLA-A2^+ healthy donor #10,— (IgG reactive to a corresponding peptide was judged to be positive when a difference of OD in a 1:100-diluted plasma was more than 0.054.)
same,Total (IgG-positive donors / donors tested),[2]; HLA-A2^+ healthy donors,3/10
same,IgG reactive to the peptide in plasma (difference of OD),[2]; HLA-A2^+ prostate cancer patient #1,— (IgG reactive to a corresponding peptide was judged to be positive when a difference of OD in a 1:100-diluted plasma was more than 0.054.)
same,IgG reactive to the peptide in plasma (difference of OD),[2]; HLA-A2^+ prostate cancer patient #2,— (IgG reactive to a corresponding peptide was judged to be positive when a difference of OD in a 1:100-diluted plasma was more than 0.054.)
same,IgG reactive to the peptide in plasma (difference of OD),[2]; HLA-A2^+ prostate cancer patient #3,0.0675 OD
same,IgG reactive to the peptide in plasma (difference of OD),[2]; HLA-A2^+ prostate cancer patient #4,— (IgG reactive to a corresponding peptide was judged to be positive when a difference of OD in a 1:100-diluted plasma was more than 0.054.)
same,IgG reactive to the peptide in plasma (difference of OD),[2]; HLA-A2^+ prostate cancer patient #5,— (IgG reactive to a corresponding peptide was judged to be positive when a difference of OD in a 1:100-diluted plasma was more than 0.054.)
same,IgG reactive to the peptide in plasma (difference of OD),[2]; HLA-A2^+ prostate cancer patient #6,— (IgG reactive to a corresponding peptide was judged to be positive when a difference of OD in a 1:100-diluted plasma was more than 0.054.)
same,IgG reactive to the peptide in plasma (difference of OD),[2]; HLA-A2^+ prostate cancer patient #7,— (IgG reactive to a corresponding peptide was judged to be positive when a difference of OD in a 1:100-diluted plasma was more than 0.054.)
same,IgG reactive to the peptide in plasma (difference of OD),[2]; HLA-A2^+ prostate cancer patient #8,— (IgG reactive to a corresponding peptide was judged to be positive when a difference of OD in a 1:100-diluted plasma was more than 0.054.)
same,IgG reactive to the peptide in plasma (difference of OD),[2]; HLA-A2^+ prostate cancer patient #9,— (IgG reactive to a corresponding peptide was judged to be positive when a difference of OD in a 1:100-diluted plasma was more than 0.054.)
same,IgG reactive to the peptide in plasma (difference of OD),[2]; HLA-A2^+ prostate cancer patient #10,0.0995 OD
same,Total (IgG-positive patients / patients tested),[2]; HLA-A2^+ prostate cancer patients,2/10
